{"source": "ChEMBL document CHEMBL1157539", "about": "“Thousands of chemical starting points for antimalarial lead identification” (Nature, 2010)", "data": [{"tested_on": "Plasmodium falciparum", "assay": "GSK_TCMDC: Inhibition of Plasmodium falciparum 3D7 in whole erythrocytes, using parasite LDH activity as an index of growth.", "assay_type": "functional, organism-based", "details": "Plasmodium falciparum, 3D7", "units": {"XC50": "nM"}, "values": [{"smiles": "CO/C(=C/C=C/c1cc2cc(Cl)c(Cl)cc2[nH]1)C(=O)NC1CC(C)(C)N(C)C(C)(C)C1", "XC50": 783}, {"smiles": "COC(=O)CCCCCOc1cc(Cc2cnc(N)nc2N)cc(OC)c1OC", "XC50": 179}, {"smiles": "CCn1c(C(C)C)cc2c3c(N)nc(N)nc3ccc21", "XC50": 12.4}, {"smiles": "Cc1[nH]c(C)c(-c2ccc(Oc3ccc(Cl)cc3)cc2)c(=O)c1Br", "XC50": 592}, {"smiles": "COCCn1c(C)cc(C(=O)CN2C(=O)NC(C)(c3ccc(C(C)(C)C)cc3)C2=O)c1C", "note": "(stereo not given)", "XC50": 475}, {"smiles": "O=C(NCC1CCN(Cc2cccc(C(F)(F)F)c2)C1)c1cc(-c2cccc(C(F)(F)F)c2)cs1", "note": "(stereo not given)", "XC50": 608}, {"smiles": "FC(F)(F)c1ccc2[nH]ccc(=NN=Cc3ccc(Cl)cc3)c2c1", "XC50": 791}, {"smiles": "COc1ccc(Cc2cccc(C(C(=O)NCc3cc(Cl)cc(Cl)c3)N3CCN(C)CC3)c2)cc1", "note": "(stereo not given)", "XC50": 694}, {"smiles": "O=C1SC(S)=NC1=CNCCCCCCO", "XC50": 850}, {"smiles": "COc1ccc2c(=NN=Cc3ccccc3F)cc(C)[nH]c2c1", "XC50": 997}, {"smiles": "O=C(NCc1cccs1)[C@H](Cc1ccccc1)Nc1ccnc(NCC2CCCCC2)n1", "XC50": 1050}, {"smiles": "N#Cc1ccc(N/C(=N\\c2ccccc2Cl)NC2CCN(Cc3ccccc3)CC2)c(O)c1", "XC50": 300}, {"smiles": "CC(C)N1CCN(C(=O)c2ccc(CNCCCN3CCN(c4cccc(Cl)c4Cl)CC3)s2)CC1", "XC50": 716}, {"smiles": "CC1(C)CN2CCCC2c2cc(NC(=O)/C=C/c3ccccc3Cl)ccc21", "note": "(stereo not given)", "XC50": 991}, {"smiles": "O=C(c1cccs1)N(Cc1cccc(-c2ccc(CNCCc3ccccc3)cc2)c1)C1CCN(Cc2ccccc2)CC1", "XC50": 860}, {"smiles": "CN1CCN(CCCN(Cc2csc(-c3ccc(CNCc4ccccc4)cc3)n2)C(=O)Nc2cc(Cl)cc(Cl)c2)CC1", "XC50": 700}, {"smiles": "CCCCNC(=O)[C@H](CC1CCCCC1)NC(=O)c1ccc(O)c(-c2cccc(C(F)(F)F)c2)c1", "XC50": 773}, {"smiles": "CO/C(=C\\C=C\\c1cc2cc(Cl)c(Cl)cc2[nH]1)C(=O)NCCCN1CCN(c2cccc(OCC(=O)Nc3cccc(C(=O)c4ccccc4)c3)c2)CC1", "XC50": 686}, {"smiles": "CCC(C)C#Cc1c(C)nc(N)nc1N", "note": "(stereo not given)", "XC50": 262}, {"smiles": "COc1cccc(CNc2ncc(-c3ccsc3)c(-c3nccs3)n2)c1", "XC50": 422}, {"smiles": "Cc1nc(-c2cccc(C(=O)N(Cc3cncn3Cc3cccc(C(F)(F)F)c3)CC3CC3)c2)cs1", "XC50": 941}, {"smiles": "COc1cccc(-c2nn(C)c3sc(C(=O)NCCN(C)Cc4ccccc4)cc23)c1", "XC50": 814}, {"smiles": "Cc1ccoc1C(=O)Nc1cccc(-c2cccc(-c3nc4cc(C(F)(F)F)ccc4[nH]3)c2)c1", "XC50": 613}, {"smiles": "O=C(NCCCCN1CCC(c2ccc3c(c2OCC2CC2)CCCC3)CC1)c1ccc(NC(=O)c2ccc(Cl)cc2)cc1", "XC50": 680}, {"smiles": "N#Cc1ccc(Sc2nnc(-c3ccccc3Cl)n2CC2CCCCC2)cc1[N+](=O)[O-]", "XC50": 1160}, {"smiles": "COc1cc2nc(N3CCC(CNC(=O)c4cccc5cc[nH]c45)CC3)nc(N)c2cc1OC", "XC50": 1580}, {"smiles": "COc1ccc(C(=O)Nc2cc(Br)c3c(c2)CNCC3)cc1Br", "XC50": 915}, {"smiles": "CN(C)CCN(Cc1ccc(-c2ccc(CNCCc3ccccc3)cc2)nc1)C(=O)CCC1CCCC1", "XC50": 799}, {"smiles": "OC(CN(Cc1ccccc1)Cc1ccccc1)Cn1c2ccc(Cl)cc2c2cc(Cl)ccc21", "note": "(stereo not given)", "XC50": 995}, {"smiles": "FC(F)(F)c1ccc2[nH]c(-c3cccc(-c4ccc(CNCC5CCCO5)cc4)c3)nc2c1", "note": "(stereo not given)", "XC50": 277}, {"smiles": "CCCCCCCN1CCC(NC(=O)Nc2ccnc3ccc(OC)cc23)C(C(=O)OCC)C1", "note": "(stereo not given)", "XC50": 426}, {"smiles": "O=C(/C=C/c1ccc(Cl)c(Cl)c1)NCCCCCCN1CCCN(C(=O)Nc2ccc(C(F)(F)F)cc2)CC1", "XC50": 579}, {"smiles": "O=C(Nc1ccc(Br)cc1)N(CCN1CCOCC1)CC(O)COCc1ccc(Cl)c(Cl)c1", "note": "(stereo not given)", "XC50": 929}, {"smiles": "CCCCCN1CCC(NS(=O)(=O)c2cccc(C(=O)Nc3cccc(C(F)(F)F)c3)c2)C1", "note": "(stereo not given)", "XC50": 826}, {"smiles": "CC(C)CCNc1nc(NCc2ccccc2)c2cc(O)ccc2n1", "XC50": 105}, {"smiles": "C=CCOc1ccc2ccccc2c1CNCCCCCCNCc1c(OCC=C)ccc2ccccc12", "XC50": 859}, {"smiles": "NCc1cccc(-c2ccccc2CNC2CCN(Cc3ccccc3)CC2)c1", "XC50": 770}, {"smiles": "NCCNc1ccc([N+](=O)[O-])cc1C(=O)Nc1cccc(Cl)c1", "XC50": 1260}, {"smiles": "O=C(NNC(=O)c1ccc(CCN2CCC(c3nc(COCC(F)(F)F)c(-c4ccc(F)cc4)o3)CC2)cc1)Nc1ccc(Oc2ccccc2)cc1", "XC50": 708}, {"smiles": "COc1ccc(CNCc2ccccc2)cc1-c1ccc(S(=O)(=O)NCCN2CCCC2)cc1", "XC50": 824}, {"smiles": "COC(=O)CNC(c1ccccc1)c1cc(Br)ccc1NC(=O)c1ccccc1Br", "note": "(stereo not given)", "XC50": 988}, {"smiles": "Cc1nc(C)c(-c2ccc(Cl)cc2Cl)c(O)c1Br", "XC50": 1010}, {"smiles": "Clc1ccc(CNc2nc(NCCc3c[nH]cn3)nc(N3CCCC4CCCCC43)n2)cc1", "note": "(stereo not given)", "XC50": 591}, {"smiles": "COc1ccc(Br)cc1/C=C/C(=O)Nc1cccc(C2CCN(C)CC2)c1", "XC50": 523}, {"smiles": "O=C(Nc1cccc(-c2ccc(-c3nc4cc(C(F)(F)F)ccc4[nH]3)cc2)c1)c1c[nH]cn1", "XC50": 966}, {"smiles": "OC(CNCc1ccccc1)c1cc(OCc2ccccc2)cc(OCc2ccccc2)c1", "note": "(stereo not given)", "XC50": 1000}, {"smiles": "CC(C)CCn1c(Sc2ccc([N+](=O)[O-])cc2C(F)(F)F)nnc1-c1ccccc1Cl", "XC50": 919}, {"smiles": "COc1ccccc1C(=O)Nc1cccc(N2CCC(NCc3ccc(-n4cccn4)cc3)CC2)c1", "XC50": 1190}, {"smiles": "COc1ccc2c(=NN=Cc3cccnc3)cc(C)[nH]c2c1", "XC50": 993}, {"smiles": "Cc1cc(NC(=O)NCCN2CCC(NS(=O)(=O)c3ccc(C(F)(F)F)cc3)C2)c2ccccc2n1", "note": "(stereo not given)", "XC50": 645}, {"smiles": "O=C(Nc1cccc(-c2nn3ncccc3c2-c2ccnc(Nc3ccccc3)n2)c1)c1c(F)cccc1F", "XC50": 726}, {"smiles": "COc1ccc(O)c(C(=O)c2cc(C(=O)NC3CCCCC3)c(=O)n(C3CCCCC3)c2)c1", "XC50": 664}, {"smiles": "CCc1ccc(NC(=O)N(CCCN2CCN(C)CC2)Cc2csc(-c3ccc(CNCc4ccccc4)cc3)n2)cc1", "XC50": 1010}, {"smiles": "CC(C)(C)c1ccc(NC(=O)c2ccc(CN3CCCN(Cc4cccc(Cl)c4)CC3)cc2)cc1", "XC50": 972}, {"smiles": "COc1cc(F)c2ncc(Cl)c(CCN3CCC(NCc4ccc5c(n4)NC(=O)CS5)CC3)c2c1", "XC50": 482}, {"smiles": "O=C(C=Cc1ccc(Cl)c(Cl)c1)NCCCCCN1CCC(CCCNS(=O)(=O)c2cccc(C(F)(F)F)c2)CC1", "XC50": 477}, {"smiles": "C(=N\\Nc1nccc2sc(-c3cccnc3)cc12)/c1ccncc1", "XC50": 213}, {"smiles": "O=C(Nc1cc(C(F)(F)F)cc(C(F)(F)F)c1)c1cccc([N+](=O)[O-])c1", "XC50": 895}, {"smiles": "O=C(Nc1ccc(OC2CCN(Cc3ccc(F)cc3)CC2)c(Cl)c1)c1ccoc1", "XC50": 1180}, {"smiles": "Cn1cnc(CCNC(=O)c2cccc(-c3csc(-c4nc5ccccc5[nH]4)c3)c2)c1", "XC50": 599}, {"smiles": "Oc1ccc(CCCNc2nc(NCc3cccc4ccccc34)nc(N3CCCNCC3)n2)cc1", "XC50": 987}, {"smiles": "Cc1ccc(-c2noc(COc3ccccc3C(=O)NC3CCCC3)n2)cc1", "XC50": 882}, {"smiles": "O=C(Nc1cccc(-c2ccc(-c3nc4ccccc4[nH]3)cc2)c1)c1cccnc1", "XC50": 1040}, {"smiles": "CCN(CCCNc1nc(=S)[nH]c2cc(OC)c(OC)cc12)c1ccccc1", "XC50": 721}, {"smiles": "Cc1ccc(Sc2ccc(NC(=O)CN3CCN(C(=O)c4ccco4)CC3)cc2)cc1C", "XC50": 911}, {"smiles": "Cc1nc(-c2nc(NCCc3c(C)noc3C)ncc2-c2ccsc2)sc1C", "XC50": 256}, {"smiles": "CN(C)CCNC(=O)c1ccc(-c2cnc3ccc(NCc4ccc(Cl)c(Cl)c4)nn23)cc1", "XC50": 913}, {"smiles": "CCCNC(=O)Nc1cc2cc(-c3cccc(CN4CCCCC4)c3)ccc2n2c(C)nnc12", "XC50": 1110}, {"smiles": "O=C(Nc1nc(-c2ccccn2)cs1)c1ccc(S(=O)(=O)N2CCc3ccccc32)cc1", "XC50": 830}, {"smiles": "O=C(NCCCCN1CCC2c3cccc(O)c3CCC21)c1ccc(-c2ccccc2)cc1", "note": "(stereo not given)", "XC50": 1380}]}]}
